Assay results taken from article PMC8002983, “Mammalian Arginase Inhibitory Activity of Methanolic Extracts and Isolated Compounds from Cyperus Species” (Molecules, 2021).

Target: T1, purified liver bovine arginase (b-ARGI) (Bos taurus, UniProt Q2KJ64)
T1 construct: purified liver bovine arginase 1, which was purchased from MP Biomedicals; purchased MP Biomedicals (Illkirch-Graffenstaden, France); host or cells: bovine liver (tissue-purified)
T1 sequence (Q2KJ64 1-322): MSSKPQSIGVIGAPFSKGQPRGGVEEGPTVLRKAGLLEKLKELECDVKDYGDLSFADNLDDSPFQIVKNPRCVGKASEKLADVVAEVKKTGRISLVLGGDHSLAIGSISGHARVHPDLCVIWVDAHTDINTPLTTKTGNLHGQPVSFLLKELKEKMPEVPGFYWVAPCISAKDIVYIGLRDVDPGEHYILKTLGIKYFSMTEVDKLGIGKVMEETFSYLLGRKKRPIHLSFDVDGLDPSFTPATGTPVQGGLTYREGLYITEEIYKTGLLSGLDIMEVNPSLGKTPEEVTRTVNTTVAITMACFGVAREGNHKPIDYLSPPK
Assay: in vitro arginase inhibitory assay (colorimetric urea detection)
Assay type: biochemical
Settings: means ± SEM, three distinct experiments in triplicate, read-out: Arginase Inhibition, IC50
Description: The amount of urea produced by the hydrolysis of L-arginine by arginase (purified liver bovine arginase (b-ARGI)) can be detected using a color reactant (α-isonitrosopropiophenone) followed by a colorimetric assay, as described below. In each well of a 96-well microplate, the solutions were added in the following order: (1) buffer containing Tris-HCl (50 mM, pH 7.5) and 0.1% of bovine serum albumin (TBSA buffer) (10 μL), with or without (control) arginase (0.025 U/μL); (2) Tris-HCl solution (50 mM, pH 7.5) containing 10 mM MnCl2 as a cofactor (30 μL); (3) a solution containing an inhibitor or its solvent (as a control) (10 μL); (4) a solution of L-arginine (pH 9.7, 0.05 M) (20 μL). The microplate was incubated for 60 min in a 37 °C water bath after covering with a plastic sealing film. The addition of 120 μL of H2SO4/H3PO4/H2O (1:3:7) quenched the reaction. The microplate was left on ice for 5 min. Thereafter, 10 μL of α-isonitrosopropiophenone (5% in absolute ethanol (EtOH)) was added, and the microplate was heated in an oven at 100 °C for 45 min, after covering with an aluminum sealing film. As the colored product is photosensitive, the microplate was kept in the dark until reading. After 5 min of centrifugation and cooling for another 10 min, the microplate was shaken for 2 min and the absorbance was read at 550 nm and 25 °C using a spectrophotometer (Synergy HT BioTeck). The level of arginase activity was expressed as relative to the “100% arginase activity”. The experiment was repeated three times with each microplate under similar experimental conditions (e.g., various inhibitor concentrations.)
The percentage of arginase inhibitory activity and IC50 values was evaluated as previously described. A stock solution (70 mM) was prepared in DMSO and stored at −26 °C for each compound. These stock solutions were extemporaneously and successively diluted in ultrapure H2O to afford the following concentrations: 7000, 2100, 700, 210, 70, 21, 7, 2.1, and 0.7 μM, corresponding to final concentrations in the wells of 1000, 300, 100, 30, 10, 3, 1, 0.3, 0.1 μM, respectively. For a first screening, compounds were tested at final concentrations of 10 and 100 μM. Each solution was incubated with arginase for 1 h, as described above. The percentage of arginase inhibition was calculated by conversion of the resulting absorbance (relative to the absorbance of controls with only solvent (“100% arginase activity”)) and plotted on a semilogarithmic scale. The IC50 values were estimated by nonlinear sigmoidal curve-fitting by using Prism (GraphPad Software, version 5.0.3).

SMILES | IC50
COc1cc2c3c(cc(O)cc3c1)C(C)(C)c1c-2ccc(OC)c1O [Compound 1, 4,6-dihydroxy-12-dimethyl-3,10-dimethoxybenzophenanthrene] | 28.8 ± 2.5 µM
Oc1ccc(/C=C/c2cc(O)cc3c2[C@H](c2cc(O)cc(O)c2)[C@@H](c2ccc(O)c(O)c2)O3)cc1 (stereo in doubt) [Compound 4, trans-scirpusin A] | 17.6 ± 2.2 µM

Now from value to compound:

IC50 | SMILES
74.1 ± 3.7 µM | COc1cc2c3c(c1)O[C@H](C)CC3(C)c1cc3oc(OC)ccc-3c1O2 (stereo partly drawn) [Compound 2, thunbergin B]
60.6 ± 3.1 µM | O=c1cc(-c2ccc(O)c(O)c2)oc2cc(O)cc(O)c12 [Compound 7, luteolin]
57.1 ± 2.3 µM | O=C1/C(=C/c2ccc(O)c(O)c2)Oc2cc(O)cc(O)c21 [Compound 5, aureusidin]
105 ± 4.1 µM | Oc1ccc(/C=C/c2cc(O)cc(O)c2)cc1 [Compound 3, trans-resveratrol]
19.4 ± 1.3 µM | Oc1cc(O)cc(-c2c(-c3ccc(O)c(O)c3)oc3cc4oc(-c5ccc(O)c(O)c5)c(-c5cc(O)cc(O)c5)c4c(/C=C/c4ccccc4)c23)c1 [Compound 6, trans-cyperusphenol A]

Test system: aortic rings from adjuvant induced-arthritis rats
Assay: ex vivo acetylcholine-induced relaxation in isolated aortic rings from arthritic rats
Set-up: species or system rat
Settings: day 33 post-immunization, phenylephrine 10^−6 mol/L preconstriction, nor-NOHA 10^−4 mol/L, extract 2.6 10^−3 mg/mL
Description: This part of the experiment was performed on 15 male Lewis rats (6 weeks old), purchased from JanvierLabs (Le Genest Saint Isle, France). The experimental procedures were approved by the local ethics committee for animal experimentation No. 2015/001-CD/5PR of Franche-Comté University (Besançon, France) and complied with the “Animal Research: Reporting In Vivo Experiments” (ARRIVE) guidelines.
Arthritis was induced by a single intradermal injection to the tail of 120 μL of 10 mg·ml^−1 heat-killed Mycobacterium butyricum suspended in Freund’s incomplete adjuvant, as described previously. Non-arthritic age-matched rats were used as controls and received saline at the base of the tail.
At 33 days post-immunization, corresponding to the acute phase of arthritis, the rats were anesthetized using sodium pentobarbital 60 mg/kg (Ceva Santé Animale, France). The descending thoracic aorta was excised and carefully cleaned for vascular study as previously described. […] To assess the effect of arginase inhibitors, experiments were repeated in the presence of nor-NOHA (10^−4 M) and C. thunbergii extract (at EC50 obtained by in vitro test), respectively.

SMILES | effect on depressed Ach-induced endothelium-dependent relaxation (endothelial dysfunction)
N=C(NO)NCC[C@H](N)C(=O)O [nor-NOHA, Nω-hydroxy-nor-L-arginine] | relaxation was higher

Target: T1, purified liver bovine arginase (b-ARGI)
Assay: not given
Set-up: method as in PMID 27776374, PMID 28837342
Settings: mammalian arginase; read-out: Arginase inhibition IC50 of natural inhibitor piceatannol; cited from earlier work

SMILES | IC50
Oc1cc(O)cc(/C=C/c2ccc(O)c(O)c2)c1 [piceatannol] | 12.6 µM
